The target of this test is MAPK14;MAPK11;MAPK12 (human) (UniProt Q16539). Briefly: Inhibition of p38 Kinase Activity.

Broadly, the IC50 is the concentration at which inhibition is half-maximal. Read a low IC50 as inhibition by little substance. Take `COc1cccc(NC(=O)c2ccc(C)c(Nc3nc(N[C@H]4CCNC4)nc(N(C)CC(C)(C)C)n3)c2)c1`: the IC50 was under 1000 nM.
The value for `Cc1ccccc1NC(=O)N1CC2CC1CN2c1nc(NCC(C)c2ccccc2)nc(Nc2ccc3ncsc3c2)n1` (configuration not stated) was under 10000 nM; that for `CN(CCN(C)c1nc(NCCc2ccccc2)nc(Nc2ccc3ncsc3c2)n1)C(=O)CCC(=O)O` was under 10000 nM; that for `Cc1ccc(C(N)=O)cc1Nc1nc(NCC2(c3ccc(Cl)cc3)CC2)nc(N[C@H]2CCNC2)n1` was under 1000 nM.
`Cc1ccc(C(N)=O)cc1Nc1nc(N[C@H]2CCN(Cc3ccccc3O)C2)nc(N(C)CC(C)C)n1` had an IC50 of under 1000 nM.
With `COC[C@H]1C[C@@H](Nc2nc(Nc3cc(C(N)=O)ccc3C)nc(N(C)CC(C)(C)C)n2)CN1` the figure was under 1000 nM; with `Cc1ccc(C(N)=O)cc1Nc1nc(N[C@H]2CCN(Cc3ccncc3)C2)nc(N(C)CC(C)C)n1`, under 1000 nM.
The value for `Cc1ccc(-c2nn(C)c(=O)[nH]2)cc1Nc1nc(N(C)CC(C)(C)C)nc(N2CCCN(C)CC2)n1` was under 1000 nM; that for `CCC(C)CNc1nc(Nc2cc(C(N)=O)ccc2C)nc(N[C@H]2CCNC2)n1` (some centres not stated) was under 1000 nM.
For the molecule `Cc1ccc(C(N)=O)cc1Nc1nc(Cl)nc(N[C@@H]2CCNC2)n1`, the IC50 was under 1000 nM.
The value for `CNC(=O)c1ccc(C)c(Nc2nc(NC[C@H]3CCCN3)nc(N(C)CC(C)(C)C)n2)c1` was under 1000 nM.
The value for `Cc1ccc(C(N)=O)cc1Nc1nc(N)nc(NC[C@@H]2CC[C@H]3C[C@@H]2C3(C)C)n1` was under 1000 nM; that for `CNC1CCN(c2cc(NCCOC(C)C)nc(-n3cnc4cc(C)ccc43)n2)C1` (configuration not stated) was under 10000 nM; that for `CONC(=O)c1ccc(C)c(Oc2nc(NCc3ccccn3)nc(N(C)CC(C)(C)C)n2)c1` was under 30000 nM.
With `Cc1ccc(C(N)=O)cc1Nc1nc(O)nc(NC2CCCC2)n1` the figure was under 1000 nM.
As to `Cc1ccc(C(N)=O)cc1Nc1nc(N[C@H]2CONC2=O)nc(N(C)CC(C)(C)C)n1`, the IC50 is under 1000 nM.
`Cc1ccc(C(N)=O)cc1Nc1nc(N[C@H]2CCN(c3ccccc3N)C2)nc(N(C)CC(C)(C)C)n1` had an IC50 of under 1000 nM.
`Cc1ccc(C(N)=O)cc1Nc1nc(N[C@H]2CCN(C(=O)c3ccccn3)C2)nc(N(C)CC(C)C)n1` registered an IC50 of under 1000 nM.
For the molecule `Cc1ccc(C(N)=O)cc1Nc1nc(N[C@@H]2CCN(C(C)CC(C)C)C2)nc(N(C)CC(C)C)n1` (some centres not stated), the IC50 was under 1000 nM.
The value for `Cc1ccc(C(N)=O)cc1Nc1nc(N[C@@H]2CCCC[C@@H]2N)nc(N(C)CC(C)(C)C)n1` was under 1000 nM.
For the molecule `Cc1ccc(C(=O)NCc2ccccc2)cc1Nc1nc(N[C@H]2CCNC2)nc(N(C)CC(C)(C)C)n1`, the IC50 was under 1000 nM.
With `CC1(C)[C@H]2CCC(COc3nc(Cl)nc(Nc4ccc5ncsc5c4)n3)[C@@H]1C2` (some centres not stated) the figure was under 10000 nM.

The record behind these values is the Kinase Knowledgebase extract (Sharma et al. 2016).
